Measurements published in PubChem BioAssay (NCI).
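Cultured in 96-well plates, cells were exposed to test compound for 48 hours across five concentrations. GI50: concentration for 50% inhibition of growth. The concentration for full growth arrest is given as TGI.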

Tests used:
Test in all cases: NCI anticancer screen, dose series, 48 h
786-0 renal = tested on: 786-0 renal
A498 renal = tested on: A498 renal
A549 NSCLC = tested on: A549 NSCLC
ACHN renal = tested on: ACHN renal
BT-549 breast = tested on: BT-549 breast
CAKI-1 renal = tested on: CAKI-1 renal
CCRF-CEM leukemia = tested on: CCRF-CEM leukemia
COLO 205 colon = tested on: COLO 205 colon
DU-145 prostate = tested on: DU-145 prostate
EKVX NSCLC = tested on: EKVX NSCLC
HCC-2998 colon = tested on: HCC-2998 colon
HCT-116 colon = tested on: HCT-116 colon
HCT-15 colon = tested on: HCT-15 colon
HL-60(TB) leukemia = tested on: HL-60(TB) leukemia
HOP-62 NSCLC = tested on: HOP-62 NSCLC
HOP-92 NSCLC = tested on: HOP-92 NSCLC
HS 578T breast = tested on: HS 578T breast
HT29 colon = tested on: HT29 colon
IGROV1 ovarian = tested on: IGROV1 ovarian
K-562 leukemia = tested on: K-562 leukemia
KM12 colon = tested on: KM12 colon
LOX IMVI melanoma = tested on: LOX IMVI melanoma
M14 melanoma = tested on: M14 melanoma
MALME-3M melanoma = tested on: MALME-3M melanoma
MCF7 breast = tested on: MCF7 breast
MDA-MB-231 breast = tested on: MDA-MB-231 breast
MDA-MB-435 = tested on: MDA-MB-435
MDA-MB-468 breast = tested on: MDA-MB-468 breast
MOLT-4 leukemia = tested on: MOLT-4 leukemia
NCI-H226 lung = tested on: NCI-H226 lung
NCI-H23 lung = tested on: NCI-H23 lung
NCI-H460 lung = tested on: NCI-H460 lung
NCI-H522 lung = tested on: NCI-H522 lung
NCI/ADR-RES ovarian = tested on: NCI/ADR-RES ovarian
OVCAR-3 ovarian = tested on: OVCAR-3 ovarian
OVCAR-4 ovarian = tested on: OVCAR-4 ovarian
OVCAR-5 ovarian = tested on: OVCAR-5 ovarian
OVCAR-8 ovarian = tested on: OVCAR-8 ovarian
PC-3 prostate = tested on: PC-3 prostate
RPMI-8226 leukemia = tested on: RPMI-8226 leukemia
RXF 393 renal = tested on: RXF 393 renal
SF-268 CNS = tested on: SF-268 CNS
SF-295 CNS = tested on: SF-295 CNS
SF-539 CNS = tested on: SF-539 CNS
SK-MEL-2 melanoma = tested on: SK-MEL-2 melanoma
SK-MEL-28 melanoma = tested on: SK-MEL-28 melanoma
SK-MEL-5 melanoma = tested on: SK-MEL-5 melanoma
SK-OV-3 ovarian = tested on: SK-OV-3 ovarian
SN12C renal = tested on: SN12C renal
SNB-19 CNS = tested on: SNB-19 CNS
SNB-75 CNS = tested on: SNB-75 CNS
SR leukemia = tested on: SR leukemia
SW-620 colon = tested on: SW-620 colon
T-47D breast = tested on: T-47D breast
TK-10 renal = tested on: TK-10 renal
U251 CNS = tested on: U251 CNS
UACC-257 melanoma = tested on: UACC-257 melanoma
UACC-62 melanoma = tested on: UACC-62 melanoma
UO-31 renal = tested on: UO-31 renal

COc1cc(-c2nc3ccc(C)cc3[nH]2)ccc1OCc1nnc(-c2ccc(Br)cc2)o1
GI50 (786-0 renal): 16.6 µM
TGI (786-0 renal): 45.5 µM
GI50 (A498 renal): 30.3 µM
TGI (A498 renal): 93.3 µM
GI50 (A549 NSCLC): 31 µM
TGI (A549 NSCLC): > 100 µM
GI50 (ACHN renal): 27.2 µM
TGI (ACHN renal): > 100 µM
GI50 (BT-549 breast): 21.3 µM
TGI (BT-549 breast): 48.8 µM
GI50 (CAKI-1 renal): 25.5 µM
TGI (CAKI-1 renal): > 100 µM
GI50 (CCRF-CEM leukemia): 28.3 µM
TGI (CCRF-CEM leukemia): > 100 µM
GI50 (COLO 205 colon): 27.1 µM
TGI (COLO 205 colon): > 100 µM
GI50 (DU-145 prostate): 51.7 µM
TGI (DU-145 prostate): > 100 µM
GI50 (EKVX NSCLC): 18.9 µM
TGI (EKVX NSCLC): > 100 µM
GI50 (HCC-2998 colon): 26.2 µM
TGI (HCC-2998 colon): > 100 µM
GI50 (HCT-116 colon): 25.4 µM
TGI (HCT-116 colon): > 100 µM
GI50 (HCT-15 colon): 12.2 µM
TGI (HCT-15 colon): 85.7 µM
GI50 (HL-60(TB) leukemia): 18.6 µM
TGI (HL-60(TB) leukemia): 39 µM
GI50 (HOP-62 NSCLC): 28.4 µM
TGI (HOP-62 NSCLC): > 100 µM
GI50 (HOP-92 NSCLC): 15.6 µM
TGI (HOP-92 NSCLC): > 100 µM
GI50 (HS 578T breast): 12.5 µM
TGI (HS 578T breast): 45.4 µM
GI50 (HT29 colon): 10.8 µM
TGI (HT29 colon): 53.6 µM
GI50 (IGROV1 ovarian): 16.3 µM
TGI (IGROV1 ovarian): > 100 µM
GI50 (K-562 leukemia): 15.4 µM
TGI (K-562 leukemia): > 100 µM
GI50 (KM12 colon): 55.1 µM
TGI (KM12 colon): > 100 µM
GI50 (LOX IMVI melanoma): 12.1 µM
TGI (LOX IMVI melanoma): 27.5 µM
GI50 (M14 melanoma): 40.2 µM
TGI (M14 melanoma): > 100 µM
GI50 (MALME-3M melanoma): 12.4 µM
TGI (MALME-3M melanoma): 28.7 µM
GI50 (MCF7 breast): 4.28 µM
TGI (MCF7 breast): 70.7 µM
GI50 (MDA-MB-231 breast): 14.4 µM
TGI (MDA-MB-231 breast): 33.1 µM
GI50 (MDA-MB-435): 18.7 µM
TGI (MDA-MB-435): 53.3 µM
GI50 (MDA-MB-468 breast): 14 µM
TGI (MDA-MB-468 breast): 30.9 µM
GI50 (MOLT-4 leukemia): 6.86 µM
TGI (MOLT-4 leukemia): > 100 µM
GI50 (NCI-H226 lung): 15.3 µM
TGI (NCI-H226 lung): > 100 µM
GI50 (NCI-H23 lung): 32 µM
TGI (NCI-H23 lung): > 100 µM
GI50 (NCI-H460 lung): 27.8 µM
TGI (NCI-H460 lung): > 100 µM
GI50 (NCI-H522 lung): 17.1 µM
TGI (NCI-H522 lung): 45 µM
GI50 (NCI/ADR-RES ovarian): 19.3 µM
TGI (NCI/ADR-RES ovarian): > 100 µM
GI50 (OVCAR-3 ovarian): 20.5 µM
TGI (OVCAR-3 ovarian): 52.9 µM
GI50 (OVCAR-4 ovarian): 14.3 µM
TGI (OVCAR-4 ovarian): 38.4 µM
GI50 (OVCAR-5 ovarian): 57.2 µM
TGI (OVCAR-5 ovarian): > 100 µM
GI50 (OVCAR-8 ovarian): 16.1 µM
TGI (OVCAR-8 ovarian): 45.3 µM
GI50 (PC-3 prostate): 40.3 µM
TGI (PC-3 prostate): > 100 µM
GI50 (RPMI-8226 leukemia): 8.54 µM
TGI (RPMI-8226 leukemia): > 100 µM
GI50 (RXF 393 renal): 20.4 µM
TGI (RXF 393 renal): 59.8 µM
GI50 (SF-268 CNS): 36.1 µM
TGI (SF-268 CNS): > 100 µM
GI50 (SF-295 CNS): 14.9 µM
TGI (SF-295 CNS): 34.8 µM
GI50 (SF-539 CNS): 12.6 µM
TGI (SF-539 CNS): 26.7 µM
GI50 (SK-MEL-2 melanoma): 27.7 µM
TGI (SK-MEL-2 melanoma): > 100 µM
GI50 (SK-MEL-28 melanoma): 22.2 µM
TGI (SK-MEL-28 melanoma): > 100 µM
GI50 (SK-MEL-5 melanoma): 11.8 µM
TGI (SK-MEL-5 melanoma): 34.1 µM
GI50 (SK-OV-3 ovarian): 23.6 µM
TGI (SK-OV-3 ovarian): > 100 µM
GI50 (SN12C renal): 29.9 µM
TGI (SN12C renal): > 100 µM
GI50 (SNB-19 CNS): 52.3 µM
TGI (SNB-19 CNS): > 100 µM
GI50 (SNB-75 CNS): 12.2 µM
TGI (SNB-75 CNS): 56.8 µM
GI50 (SR leukemia): 10.9 µM
TGI (SR leukemia): 56.4 µM
GI50 (SW-620 colon): 32.8 µM
TGI (SW-620 colon): > 100 µM
GI50 (T-47D breast): 7.33 µM
TGI (T-47D breast): 34.4 µM
GI50 (TK-10 renal): 27.6 µM
TGI (TK-10 renal): 94.7 µM
GI50 (U251 CNS): 15.2 µM
TGI (U251 CNS): 55.4 µM
GI50 (UACC-257 melanoma): 17.3 µM
TGI (UACC-257 melanoma): 46.6 µM
GI50 (UACC-62 melanoma): 20.1 µM
TGI (UACC-62 melanoma): > 100 µM
GI50 (UO-31 renal): 11.1 µM
TGI (UO-31 renal): > 100 µM
